{
  "source": "patent US10098895B2",
  "about": "“Treatment of symptoms related to neurodegenerative disorders through pharmacological dermal activation of cranial nerves” (GLIA, LLC, priority 2016, dated 2018)",
  "format_in_all_cases": "in vivo, human",
  "key": {"[1]": {"system": "chronic ocular GVHD", "test": "Example 4: chronic ocular GVHD, progesterone 1% to the forehead", "conditions": "after 4 weeks", "source_text": "A patient with chronic ocular GVHD, upon examination, had numerous ocular surface conditions as well as damaged Meibomian glands and ocular disease behind the eye. There was notable ocular surface disease including no visible production of tear film observed by Tearscope, profuse exudate in eyes, lid sticking, and recurring filamentary keratitis."}, "[2]": {"system": "herpes ophthalmicus and herpes keratitis", "test": "Example 8: herpes ophthalmicus and herpes keratitis patient", "source_text": "A patient experienced an episode of herpes ophthalmicus and herpes keratitis in September 2003, resulting in thinning melt of the left cornea, loss of vision, inflammation, neuralgia, and a rash of blisters to the left forehead, upper nose, and temple with a subsequent full left-face palsy droop, which required multiple cosmetic surgical procedures to provide some symmetry to the face and partial closure to the eyelids of the left eye.\nNo corneal graft to the left eye could be attempted due to recurrent thinning of the full cornea and inflammation of the vasculature. The patient was treated with ophthalmic prednisolone, topical and systemic antivirals, topical antibiotics, bandage lens, punctal plugs, and over-the-counter artificial tears and gels. This treatment regimen was continued until January 2011 when the cornea thinned to probable melt-through, necessitating corneal patch surgery. Just prior to the surgery, the patient's vision was measured at 20/2000, or finger vision.\nThe patient started applying 1% progesterone to their forehead twice daily just before corneal patch surgery planned for January 2011. The dose of progesterone was approximately 1 mg per application.\nIn September 2014, corneal tissue had sufficiently epithelialized at the perimeter to attempt a corneal graft, which was successfully completed. Progesterone 1% was applied daily to the forehead post-surgery. Within 9 months vision was restored to best correct vision pinhole 20/50.\nIn February 2015, the patient's visual acuity decreased as a result of the rejection of cells at the lower part of the graft. Moderate central staining continued to persist in a band where eyelids could not close. Intraocular pressure (TOP) in the left eye rose to 22 mmHg. The patient was placed on a treatment regimen that included Prednisolone Forte 6× plus Restasis for rejection 2× daily and oral valacycovir, together with mechanically taping the eyelid closed at night.\nIn May 2016, the patient initiated a course of twice daily dronabinol treatment, 0.5 mg each dose, to both ears. Through July, stabilization was achieved, and all other medications were discontinued. […] Visual acuity improved to 20/40."}, "[3]": {"system": "Parkinson's tremor and ocular graft-versus-host disease", "test": "Example 3: Parkinson's tremor and co-morbid ocular graft-versus-host disease, topical progesterone", "source_text": "A person was diagnosed with Parkinson's disease over 3 years ago, leukemia about 2 years ago, and ocular graft versus host disease resulting from allogeneic stem cell treatment for the leukemia. The patient has been on oral carbidopa-levodopa for at least 2 years.\nThe patient started treatment with twice daily progesterone 1% gel applied to the forehead to promote ocular secretion of tear film, and to resolve other symptoms and signs of surface eye disease. […] On a follow up visit 5 weeks later, they reported continued relief from burning and photophobia.\nWhen the patient was first seen in June 2016, they had noticeable significant tremors in both hands and multiple fingers. These were related to their Parkinson's disease as diagnosed and included muscle contractions, i.e., dyskinesia, related to their carbidopa-levodopa oral treatment.\nDuring the 5-week ophthalmologist follow-up visit, the progesterone treatment regimen was performed in the office in modified form. More specifically, the daily dose of progesterone was divided, with 1 mg applied to the concha of each ear, excluding the forehead, to which progesterone had been applied 6 hours earlier. The patient reported improved moisture and comfort in both eyes approximately 2 minutes post application.\nThe patient had taken carbidopa-levodopa extended release medication at 6 am that morning, with an added immediate release dose at 8 am. The visit to the ophthalmologist was at 2 pm. At that point there was uncontrolled movement of the hands (dyskinesia) along with finger vibrations. The patient reported that the usual duration of efficacy of their carbidopa-levodopa regimen was 4 hours. Normally they would have taken another carbidopa-levodopa dose at 2 pm. Instead, progesterone was applied to the concha of both ears as described, supra."}, "[4]": {"system": "Parkinson's disease symptoms", "test": "Example 2: Parkinson's disease subject, topical progesterone and testosterone", "source_text": "A person was diagnosed with Parkinson's disease in August of 2015. Notable symptoms include both resting and action tremor of the left hand and fingers, forearm, and, to a lesser extent, the right hand and the left leg. Handwriting and computer keyboard work were difficult. They had ocular symptoms associated with the disease, including dry eye disease with moderate to severe burning and grittiness, rapid blink rate, and partial blinking. They used artificial tears constantly in an attempt to alleviate the ocular symptoms. They had not been on any Parkinson's medications. Their Parkinson's tremor followed an “on-off” cycle that correlated with their stress levels, the “on” cycle being times with low stress and few symptoms, and the “off” cycle induced by stress showing an increase in symptoms.\nIn late February 2017, the subject started applying single daily doses of 0.125% testosterone to the forehead and ear conchae. By the third day of treatment, the subject was tremor-free for periods of 4-6 hours, and the “on” part of the cycle was more frequent. […] The dose of testosterone was increased to 0.2% once daily in early April.\nIn July 2017, testosterone application was stopped after a taper to evaluate its effects. […] On Aug. 17, 2017, they reported extreme anxiety.\nThat same afternoon, the subject applied 0.2% testosterone to their forehead and ear conchae, and the next day reported less anxiety and more “on” cycles. By Aug. 20, 2017, they reported having stabilized on the once daily applications with a 60% or greater increase in “on” periods. On August 28, they reported going 9 hours without tremors and leg spasms. On Aug. 30, 2017, the subject was able to walk 8 miles and exercised in between. They described themself as feeling 100%."}, "[5]": {"system": "chronic ocular GVHD", "test": "Example 6: third case of chronic ocular GVHD, Tearscope examination", "conditions": "progesterone 1% to forehead, single dose", "experimental": "A patient with chronic ocular GVHD was examined and found to have ocular surface disease in both eyes, including filamentary keratitis. Upon examination by Tearscope there was a lack of tear film production evident in both eyes along with pronounced filaments in the left eye. They were treated with progesterone 1% to their forehead and re-examined 50 minutes later by Tearscope."}},
  "data": [
    {"smiles": "CC(=O)[C@H]1CC[C@H]2[C@@H]3CCC4=CC(=O)CC[C@]4(C)[C@H]3CC[C@]12C", "note": "[progesterone]", "values": [
      {"measurement": "exudate in both eyes", "setting": "[1]", "result": "noticeable decrease in exudate"},
      {"measurement": "lid sticking and friction", "setting": "[1]", "result": "improvement in lid sticking and friction"},
      {"measurement": "tear film production by Tearscope", "setting": "[1]", "result": "tear film production was observed"},
      {"measurement": "corneal thinning", "setting": "[2]; 1% progesterone to forehead twice daily, approximately 1 mg per application, from January 2011", "result": "corneal thinning stabilized"},
      {"measurement": "best correct vision pinhole", "setting": "[2]; Progesterone 1% daily to forehead after corneal graft, within 9 months", "result": "20/50"},
      {"measurement": "corneal melt-through", "setting": "[2]; progesterone treatment continued over two years", "result": "without corneal melt-through"},
      {"measurement": "tear film breakup and meibomian glands", "setting": "[2]; when using Progesterone 1%", "result": "tear film breakup was normal and meibomian glands functioned well"},
      {"measurement": "onset of tremor cessation", "setting": "[3]; low dose progesterone USP added to conchae of outer ears", "result": "rapid cessation of tremor within minutes"},
      {"measurement": "time to improved moisture and comfort in both eyes", "setting": "[3]; progesterone 1 mg to the concha of each ear", "result": "approximately 2 minutes"},
      {"measurement": "reduction of tremors in hands and fingers in frequency and amplitude", "setting": "[3]; progesterone 1 mg to the concha of each ear, 2 minutes post application", "result": "about 90%"},
      {"measurement": "tear film secretion", "setting": "[3]; progesterone 1% gel twice daily to forehead, after initial treatment", "result": "tear film secretion was improved"},
      {"measurement": "photophobia and burning", "setting": "[3]; progesterone 1% gel twice daily to forehead, after initial treatment, on oral carbidopa-levodopa", "result": "immediate relief of photophobia and burning"},
      {"measurement": "facial masking and facial expression", "setting": "[3]; progesterone applied to ear conchae regions", "result": "decreased facial masking and more voluntary facial expressions"},
      {"measurement": "hand and finger tremors", "setting": "[3]; progesterone applied to the forehead only, 5 weeks", "result": "no change seen in the hand and finger tremors"},
      {"measurement": "tremor", "setting": "[3]; topical progesterone to both conchae and forehead, carbidopa-levodopa at lower dosing frequency, 5 days", "result": "remained tremor-free until the subsequent visit 5 days later"},
      {"measurement": "tremors", "setting": "[4]; progesterone 1% to forehead", "result": "no impact on the tremors"},
      {"measurement": "dry eye disease", "setting": "[4]; progesterone 1% to forehead, within the first week", "result": "dry eye disease resolved"},
      {"measurement": "tremor symptoms", "setting": "[4]; topical progesterone additionally applied to the ear conchae", "result": "minimal impact on tremor symptoms"},
      {"measurement": "dry eye disease", "setting": "[4]; topical progesterone continued during testosterone abstinence", "result": "continued to be well managed"},
      {"measurement": "comfort, patient-reported", "setting": "[5]", "result": "improved comfort"},
      {"measurement": "filaments in the left eye", "setting": "[5]; 50 minutes later", "result": "flushing of the filaments in the left eye"},
      {"measurement": "tear film production by Tearscope", "setting": "[5]; 50 minutes later", "result": "production of tear film in secretions in both eyes"}
    ]}
  ]
}
